Experimental data taken from patent US20090239928A1, “N-Pyrrolidin-3YL-Amide Derivatives As Serotonin and Noradrenalin Re-Uptake Inhibitors” (priority 2004, published 2009).
Where a name gives a salt, the structure may show the parent alone. Read-outs that look alike come from different tables or passages of the source.

Tests used:
[1] = target: T1, human noradrenaline transporter (hNET) (Homo sapiens, UniProt P23975); test: SPA radioligand binding at human noradrenaline transporter (3H-nisoxetine)
T1 construct: expressed in transfected cells; host or cells: HEK-293
T1 sequence (P23975 whole entry): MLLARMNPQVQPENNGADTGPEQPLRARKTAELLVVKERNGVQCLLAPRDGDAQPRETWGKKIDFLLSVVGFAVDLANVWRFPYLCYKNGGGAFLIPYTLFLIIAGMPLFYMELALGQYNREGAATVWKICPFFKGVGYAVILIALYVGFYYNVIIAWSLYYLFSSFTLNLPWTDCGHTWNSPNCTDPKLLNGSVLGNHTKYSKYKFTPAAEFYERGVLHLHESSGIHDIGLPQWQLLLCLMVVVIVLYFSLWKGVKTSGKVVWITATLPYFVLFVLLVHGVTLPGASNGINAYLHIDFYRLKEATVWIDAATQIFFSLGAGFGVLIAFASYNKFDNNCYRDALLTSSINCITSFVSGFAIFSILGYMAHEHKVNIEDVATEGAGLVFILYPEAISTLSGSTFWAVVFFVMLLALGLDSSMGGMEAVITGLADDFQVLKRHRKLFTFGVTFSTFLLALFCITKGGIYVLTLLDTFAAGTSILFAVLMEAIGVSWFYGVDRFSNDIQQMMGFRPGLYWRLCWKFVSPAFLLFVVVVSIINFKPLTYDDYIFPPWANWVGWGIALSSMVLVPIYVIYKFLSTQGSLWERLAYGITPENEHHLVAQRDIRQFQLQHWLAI
Description: The affinity of the specific radioligand for the respective transporter is determined for each membrane batch at the selected protein and bead concentrations. […] The mean KD for a radioligand at a batch of membranes is determined from data from a minimum of three separate assays.
The required amount of membrane is thawed on ice and added to a predetermined volume of bead suspension in assay buffer. The beads are then pre-coupled by incubating the predetermined protein quantity per mg of bead on a shaker at a temperature of 4° C. for 2 hours. Subsequently, the bead/membrane complex is spun down at 865×g for 5 minutes. The resulting pellet is resuspended in assay buffer and this spin/wash step is then repeated. The final pellet is then resuspended in assay buffer at the specific concentration required for the final assay.
An aliquot of [^3H]-radioligand stock is diluted in assay buffer to give a pre-determined final assay concentration less than the equilibrium dissociation constant (KD) value.
All test compounds are prepared at a concentration of 4 mM in 100% dimethyl sulphoxide (DMSO) from dry samples.
The same volume of assay buffer is added to specific wells of the plate to enable subsequent measurement of total radioligand binding. Furthermore, 20 μL a high concentration of compound specific to each transporter assay is subsequently added to predetermined wells to determine non-specific binding (NSB).

[2] = target: T2, human serotonin transporter (hSERT) (Homo sapiens, UniProt P31645); test: SPA radioligand binding at human serotonin transporter (3H-citalopram)
T2 construct: expressed in transfected cells; host or cells: HEK-293
T2 sequence (P31645 whole entry): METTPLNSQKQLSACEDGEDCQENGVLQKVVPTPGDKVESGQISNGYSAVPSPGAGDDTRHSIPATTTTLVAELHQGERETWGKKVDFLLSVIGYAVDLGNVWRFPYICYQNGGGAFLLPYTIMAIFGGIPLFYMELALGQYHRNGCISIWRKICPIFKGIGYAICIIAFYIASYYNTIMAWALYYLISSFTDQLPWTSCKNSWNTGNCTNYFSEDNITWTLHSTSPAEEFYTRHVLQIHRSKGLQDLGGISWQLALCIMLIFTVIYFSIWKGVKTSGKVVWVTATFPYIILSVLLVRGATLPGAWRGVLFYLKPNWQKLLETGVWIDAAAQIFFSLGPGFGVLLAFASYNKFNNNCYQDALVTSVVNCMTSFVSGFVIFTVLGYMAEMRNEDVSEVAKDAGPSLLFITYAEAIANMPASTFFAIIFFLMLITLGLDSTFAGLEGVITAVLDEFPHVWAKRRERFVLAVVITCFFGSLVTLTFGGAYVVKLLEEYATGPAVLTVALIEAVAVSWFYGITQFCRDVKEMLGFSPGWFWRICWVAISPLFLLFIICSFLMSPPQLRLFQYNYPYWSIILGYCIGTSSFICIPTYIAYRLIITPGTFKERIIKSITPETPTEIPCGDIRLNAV
Description: The compounds are tested for biological activity by their ability to inhibit binding of selective radioligands at the human serotonin and noradrenaline transporters (SERT and NET, respectively), using scintillation proximity assay (SPA) technology. The SPA binding is performed using cellular membrane preparations prepared from cell lines expressing human cDNA encoding either SERT or NET (hSERT, hNET), using the radioligands 3H-citalopram and 3H-nisoxetine.
Human embryonic kidney cells (HEK-293) expressing each transporter are maintained as a continuous culture, using standard cell culture techniques, in 50 mL of growth medium (see Media and Buffers for composition) in 225 cm^2 flasks, at 37° C. in a humidified atmosphere with 5% CO2 present. Cells are passaged from a 90% confluent monolayer at a ratio of 1:3-1:4. For cell harvesting, the growth medium is removed from the monolayer and the cells are incubated with cell dissociation solution (Sigma) until showing signs of dissociation. The cells are subsequently knocked from the base of the flask and pelleted by centrifugation for storage (frozen at −80° C.) prior to further use.
Cell pellets are thawed on ice and resuspended in 3 mL of membrane preparation buffer (see Media and Buffers for composition) per 1 mL of packed cell volume, using a vortex mixer to disperse the cell pellet. • After incubation on ice for 10 minutes, the suspension is homogenised for four individual 10 second intervals using a hand-held homogeniser. The homogenate is then centrifuged at 1075×g for 20 minutes at 4° C. • The supernatants are then collected and retained. Initial cell & nuclei pellets (P1) are subsequently rehomogenised and centrifuged using the conditions cited above, and the supernatants collected and pooled with those retained from the first spin.
The pooled supernatants are centrifuged at 35000×g for 30 minutes at 4° C., and the supernatants discarded. The pellets (P2) are then resuspended in 1 mL of membrane preparation buffer per 1 mL of the original packed cell volume. Protein concentrations are then measured and the membrane suspension was finally frozen in aliquots of set volume and stored at −80° C. prior to use in assays.
The specific SPA bead type differed for each transporter, wheat germ agglutinin-coated yttrium silicate (YSi WGA) SPA beads are used for hSERT and WGA-coated polyvinyltoluene (PvT WGA) SPA beads for hNET assays. For each batch of membrane used, optimal concentrations of bead and membrane are determined
Tritiated radioligands specific to each transporter (3H-citalopram for hSERT and ^3H-nisoxetine for hNET) are used. The assay free radioligand concentration is expressed as a percentage of the total free radioligand concentration to give an estimate of the radioligand depletion. The radioligand depletion in assays for both transporters is less than 30% to ensure that there was sufficient radioligand available for binding. The ligand depletion value is also used for selecting the optimal assay conditions when using new batches of membranes.
The affinity of the specific radioligand for the respective transporter is determined for each membrane batch at the selected protein and bead concentrations. This is achieved by the determination of the KD, the concentration of free radioligand at which 50% of the transporter binding sites were occupied. The mean KD for a radioligand at a batch of membranes is determined from data from a minimum of three separate assays. The mean KD is subsequently used for all assays using the membrane batch profiled to enable determination of Ki values of compounds studied using the method determined by Cheng and Prussoff (Cheng Y C and Prusoff W H. Relationship between the inhibition constant (Ki) and the concentration of inhibitor which causes 50% inhibition of an enzymatic reaction. Biochem Pharmacol 1973; 22:[…].)
The required amount of membrane is thawed on ice and added to a predetermined volume of bead suspension in assay buffer. […]

[3] = hNET membranes from HEK-293 cells, 3H-nisoxetine, SPA, read-out: NRI Ki
[4] = hSERT membranes from HEK-293 cells, 3H-citalopram, SPA, read-out: SRI Ki

Structure (SMILES) | Ki [1, 3] [nM] | Ki [2, 4] [nM] | Ki [1] [nM] | Ki [2] [nM]
O=C(c1ccccc1Oc1ccccc1)N(c1ccccc1)[C@H]1CCNC1 [Example 14, 2-phenoxy-N-phenyl-N-[(3S)-pyrrolidin-3-yl]benzamide hydrochloride] | 3 |  |  | 67
O=C(c1ccccc1C1CCCC1)N(CC1CC1)[C@H]1CCNC1 [Example 19, 2-cyclopentyl-N-(cyclopropylmethyl)-N-[(3S)-pyrrolidin-3-yl]benzamide hydrochloride] | 16 | 500 |  | 
CSc1ccccc1C(=O)N(C1CCCCC1)[C@H]1CCNC1 [Example 20, N-cyclohexyl-2-(methylthio)-N-[(3S)-pyrrolidin-3-yl]benzamide hydrochloride] | 5 | 17 |  | 

Continued, in another order:

Ki [1, 3] [nM] | Ki [2, 4] [nM] | Ki [1] [nM] | Structure (SMILES) | Ki [2] [nM]
12 | 70 |  | O=C(c1ccccc1Oc1ccccc1)N(C1CCCC1)[C@H]1CCNC1 [Example 4, N-Cyclopentyl-2-phenoxy-N-[(3S)-pyrrolidin-3-yl]benzamide hydrochloride] | 
9 | 2400 |  | CCCN(C(=O)c1cc(F)ccc1Oc1ccccc1)[C@H]1CCNC1 [Example 7, 5-fluoro-2-phenoxy-N-propyl-N-[(3S)-pyrrolidin-3-yl]benzamide hydrochloride] | 
 | 20 | 6 | CSc1ccccc1C(=O)N(CC1(C)CCC1)[C@H]1CCNC1 [Example 9, N-[(1-methylcyclobutyl)methyl]-2-(methylthio)-N-[(3S)-pyrrolidin-3-yl]benzamide hydrochloride] | 
